# Laboratory results taken from PMC6600665, “Identification and Characterization of Approved Drugs and Drug-Like Compounds as Covalent Escherichia coli ClpP Inhibitors” (International Journal of Molecular Sciences, 2019).
# pIC50: −log10 of the molar value.
# Tests used:
# [1] = biological target: T1, E. coli ClpP (Escherichia coli, UniProt P0A6G7); assay: Fluorescence-based E. coli ClpP proteolytic activity assay (Suc-LY-AMC), primary screen and dose-response; format: biochemical; details: for inhibition at 200 µM: read-out: E. coli ClpP inhibition [%] in the primary screen, primary screen, 200 µM
# T1 construct: His-tag; made in house; host or cells: E. coli SG1146a
# T1 sequence (P0A6G7 15-207): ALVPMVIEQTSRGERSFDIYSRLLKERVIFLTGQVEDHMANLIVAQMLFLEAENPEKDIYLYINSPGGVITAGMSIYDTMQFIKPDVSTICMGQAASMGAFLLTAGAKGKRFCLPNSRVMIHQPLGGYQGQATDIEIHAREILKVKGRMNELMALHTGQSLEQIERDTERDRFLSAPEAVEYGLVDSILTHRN
# Procedure: Briefly, 25 ng/μL of E. coli ClpP dissolved in a buffer containing 100 mM NaCl, 100 mM 4-(2-hydroxyethyl)-1-piperazineethanesulfonic acid (HEPES) pH 7.5, and 0.05% Brij® 35 were transferred into each well. Test compound addition (final concentration 200 µM) was carried out using an Echo® 550 liquid handling system (Labcyte, Sunnyvale, CA, USA). […] Changes in fluorescence (excitation 350 nm, emission 435 nm) were monitored at 1 min intervals at 30 °C over 1 h using an Infinite M1000 microplate reader (Tecan).
# The assay was carried out as described above with increasing concentrations of test compounds. Dose-response experiments were done at least 3 times independently, each in technical triplicates.
# Calculation of Z prime (Z’) for HTS assay performance was done according to Zhang et al.. Plates were considered for further analyses if Z’ > 0.6 [26].
# [2] = tested on: E. coli BW25-113 (wild type); assay: Growth delay under nitric oxide stress (DPTA NONOate) in M9 medium, wild type; format: cell-based; details: M9 minimal medium
# Procedure: (§1) Assessment of E. coli growth delay in presence of nitric oxide stress was carried out following our recently published protocol, which is an adaptation of the method reported by Robinson and Brynildsen to a 96-well plate format. Fresh MHB medium was inoculated with isolated colonies of E. coli BW25-113 or E. coli JW0427-1, grown on Luria Agar, and left overnight in a shaking incubator (250 rpm) at 37 °C. On the following day, the overnight culture was used to inoculate fresh M9 medium (supplemented with 10 mM glucose) 1:100, and was grown until OD600 ~0.3. Afterwards, the culture was transferred into 96-well, flat-bottom, sterile clear plates (#167008, Nunc, VWR). Bacterial OD600 was adjusted to 0.1 with M9 medium (supplemented with 10 mM glucose). Test compounds were transferred into the 96-well plates, followed by addition of the bacterial culture. Nitric oxide stress was induced by addition of 2 mM DPTA NONOate ((Z)-1-[N-(3-aminopropyl)-N-(3-ammoniopropyl)amino]diazen-1-ium-1,2-diolate, Cayman Chemical, Ann Arbor, MI, USA), dissolved in NaOH (final concentration 0.14 mM). Absorbance measurements (600 nm) were done with a Multiskan GO or Varioskan LUX plate reader (Thermo Fisher Scientific, Finland) at hourly intervals for 24 h. Between measurements, plates were incubated in a shaking incubator (500 rpm) at 37 °C.
# [3] = tested on: E. coli JW0427 (ΔclpP); assay: Growth delay under nitric oxide stress (DPTA NONOate) in M9 medium, clpP-deficient strain; format: cell-based
# Procedure: as §1
# [4] = biological target: T1, E. coli ClpP; assay: Surface plasmon resonance binding to immobilized ClpP; details: 80 µM, injected over 7 min, 30 min dissociation
# Procedure: E. coli ClpP (80 μg/mL) protein was immobilized, using amine coupling (SPR-AS-HCA-03, Bruker Daltonics Inc., Billerica, MA, USA), onto the surface of the sensor chip of a SIERRA SPR-16 instrument (Bruker Daltonics GmbH, Bremen, Germany). ClpP protein was dissolved in acetate at pH 4. The running buffer contained 150 mM NaCl, 10 mM Hepes, 3 mM EDTA, and 0.05% (v/v) Tween-20. The flow rate for protein immobilization was 10 μL/min. Binding experiments were carried out using running buffer with the addition of 0.8% (v/v) of DMSO and 80 µM test substance (flow rate of 20 μL/min for 7 min and up to 30 min of dissociation time). […] SPR data were analyzed using the Analyzer 3 software (Bruker Daltonics GmbH), which includes algorithms for subtracting reference signals and accounting for non-specific interactions between the solvent and the sensor chip surface.
# [5] = tested on: A549 cells; assay: in vitro; format: cell-based; details: 48 h incubation, 1:3 dilutions starting from 200 μM; read-out: Cytotoxicity A549 IC50
# Procedure: (§2) Potential cell toxicity of the tested compounds was evaluated by ATP quantification using the CellTiter-Glo® luminescent cell viability assay (Promega, Madison, WI, USA). […] After incubation, 20 µL of CellTiter-Glo® reagent were added per well and incubated at room temperature in the dark for another 30 min. Luminescence was quantified by an EnVision multi-plate reader (PerkinElmer, Rodgau, Germany).
# [6] = tested on: HTC-116 cells; assay: in vitro; format: cell-based; details: 48 h incubation, 1:3 dilutions starting from 200 μM; read-out: Cytotoxicity HTC-116 IC50
# Procedure: as §2
# [7] = tested on: MCF-7 cells; assay: in vitro; format: cell-based; details: 48 h incubation, 1:3 dilutions starting from 200 μM; read-out: Cytotoxicity MCF-7 IC50
# Procedure: as §2
structure (smiles),measurement,setting,value
O=C(O)C1CCCCC1C(=O)Nc1ccc(S(=O)(=O)NC2CCCCC2)cc1 (stereo not drawn) [2-({4-[(cyclohexylamino)sulfonyl]anilino}carbonyl)cyclohexanecarboxylic acid],E. coli ClpP inhibition [%] in the primary screen,"[1]; primary screen, 200 µM",72.93%
O=C(CCC1CCCC1)NCCN1CCOCC1 [3-cyclopentyl-N-[2-(4-morpholinyl)ethyl]propanamide],E. coli ClpP inhibition [%] in the primary screen,"[1]; primary screen, 200 µM",84.44%
CCc1ccc(/C=C2/SC(=S)NC2=O)cc1 [10058-F4],E. coli ClpP inhibition [%] in the primary screen,"[1]; primary screen, 200 µM",72.82%
COC(=O)N[C@H](C(=O)N[C@@H](Cc1ccccc1)[C@@H](O)CN(Cc1ccc(-c2ccccn2)cc1)NC(=O)[C@@H](NC(=O)OC)C(C)(C)C)C(C)(C)C [Atazanavir],inhibition at 200 µM,[1],85%
O=C(O)CCNC(=O)c1ccc(/N=N/c2ccc(O)c(C(=O)O)c2)cc1 [Balsalazide],inhibition at 200 µM,[1],76.5%
O=C(/C=C/c1ccc(O)cc1)CC(=O)/C=C/c1ccc(O)cc1 [Bisdemethoxycurcumin],inhibition at 200 µM,[1],76.5%
"N.N.[Cl][Pt][Cl] [Cisplatin, cisplatin]",Inhibition (%) at 200 μM E. coli ClpP,[1]; 200 μM compound concentration,96.5%
same,"Inhibition (%) at 200 μM E. coli ClpP, second value","[1]; 200 μM, cisplatin was a hit in both screened libraries, second value of the cell",98.7%
same,pIC50,"[1]; dose-response, 1:3 dilution starting from 200 μM, substrate Suc-LY-AMC, read-out: E. coli ClpP IC50",4.51
same,E. coli ClpP inhibition [%] in the primary screen,"[1]; primary screen, 200 µM",96.54%
same,"E. coli ClpP inhibition [%] in the primary screen, second library","[1]; primary screen, 200 µM, cisplatin present in two libraries (SCREEN-WELL, LOPAC1280), second value",98.67%
same,E. coli ClpP inhibition [%] in the primary screen,"[1]; primary screen, 200 µM, listed as cisplatin",> 90%
same,Growth arrest in presence of DPTA NONOate,"[2]; WT E. coli, 50 μM compound plus DPTA NONOate",~ 10 h
same,Bacterial growth in absence of NO• stress,"[2]; WT E. coli, 50 μM compound",comparable to the untreated bacteria
same,Bacterial growth in absence of NO• stress,"[2]; WT E. coli, 100 μM compound",affected bacterial growth
same,Growth delay in presence of nitric oxide stress,"[3]; clpP-deficient E. coli, DPTA NONOate, compared with cells without compound",significantly longer growth delay
same,"SPR signal (resonance units, RU)",[4],high RU values
same,pIC50,[5],4.06
same,pIC50,[6],3.04
same,pIC50,[7],5.34
"NCCCN(CCCN)/[N+]([O-])=N/O [DPTA NONOate, (Z)-1-[N-(3-aminopropyl)-N-(3-ammoniopropyl)amino]diazen-1-ium-1,2-diolate]",Growth arrest by the NO• donor alone,"[2]; wild-type strain, 2 mM DPTA NONOate, no test compound",~ 3 h
same,Growth arrest by the NO• donor alone,"[3]; ΔclpP E. coli, 2 mM DPTA NONOate, no test compound, M9 minimal medium",~ 4 h
CCOC(=O)[C@@H](N)CCC(=O)N[C@@H](CSCc1ccccc1)C(=O)N[C@@H](C(=O)OCC)c1ccccc1 [Ezatiostat],E. coli ClpP inhibition [%] in the primary screen,"[1]; primary screen, 200 µM",88.80%
O=c1c(O)c(-c2cc(O)c(O)c(O)c2)oc2cc(O)cc(O)c12 [Myricetin],inhibition at 200 µM,[1],76%
CC(=O)Oc1ccccc1C(=O)Nc1ncc([N+](=O)[O-])s1 [Nitazoxanide],inhibition at 200 µM,[1],80%
CC1=C(/C=C/C(C)=C/C=C/C(C)=C/C(=O)Nc2ccc(O)cc2)C(C)(C)CCC1 [Retinoic acid p-hydroxyanilide],E. coli ClpP inhibition [%] in the primary screen,"[1]; primary screen, 200 µM",74.12%
CO[C@H]1/C=C/O[C@@]2(C)Oc3c(C)c(O)c4c(O)c(c(/C=N/N5CCN(C6CCCC6)CC5)c(O)c4c3C2=O)NC(=O)/C(C)=C\C=C\[C@H](C)[C@H](O)[C@@H](C)[C@@H](O)[C@@H](C)[C@H](OC(C)=O)[C@@H]1C [Rifapentine],inhibition at 200 µM,[1],71.5%
